Measured values from patent US8367328B2, “Method for synthesizing DNA” (Takara Bio Inc., priority 1998, dated 2013).

Assays:
KOD DNA Polymerase = molecular target: T1, KOD DNA Polymerase (Thermococcus kodakarensis, UniProt P77933, DEL407-766/DEL852-1388); test: PCR with KOD DNA Polymerase (α-type) in the presence of acidic substances; assay type: biochemical, Pyrococcus sp.; settings: 10 kb fragment, 100 pg λDNA, 30 cycles 98°C 5 s–68°C 3 min
T1 construct: purchased TOYOBO CO., LTD
Procedure: (1) Using sodium alginate, sodium hyaluronate (manufactured by Seikagaku Kogyo), or κ carrageenan (manufactured by Sigma), the effects of these acidic substances on α-type DNA polymerase were examined. A reaction mixture comprising λDNA as a template, primers λ1 and λ8 as a primer pair, and KOD DNA Polymerase (manufactured by TOYOBO CO., LTD.) as DNA polymerase was prepared, and PCR was carried out. The composition of the reaction mixture is as follows. Composition of Reaction Mixture: KOD DNA Polymerase Buffer I (manufactured by TOYOBO CO., LTD.) 0.2 mM each of dATP, dCTP, dGTP and dTTP, 0.625 U of KOD DNA Polymerase, 100 pg of λDNA, and 5 pmol each of primers λ1 and λ8 (a final volume being 25 μl). Further, 1 μg or 2.5 μg of sodium alginate, 0.1 μg or 0.5 μg of sodium hyaluronate, or 0.1 μg or 0.25 μg of κ carrageenan was respectively added to the above reaction mixture.
The reaction in 30 cycles was carried out for each of these reaction mixtures, wherein one cycle of reaction comprises a process consisting of 98° C., 5 seconds—68° C., 3 minutes. Thereafter, 5 μl of the resulting reaction mixture was subjected to electrophoresis on 1% agarose gel containing ethidium bromide in an amount of 0.00005%, whereby an amplified fragment was confirmed.
(2) The effects on α-type DNA polymerase were also examined in the same manner as in item (1) above for sodium alginate, κ carrageenan, sodium heparan sulfate (manufactured by Sigma), sodium dermatan sulfate (manufactured by Sigma), potassium polyvinyl sulfate (manufactured by nacalaitesque) or sodium polystyrenesulfonate (two kinds: average molecular weights of 5,400 and 35,000, all manufactured by nacalaitesque). A reaction mixture comprising λDNA as a template, primers λ1 and λ8 as a primer pair, and KOD DNA Polymerase as DNA polymerase was prepared, and PCR was carried out. The composition of the reaction mixture is as follows. Composition of Reaction Mixture: KOD DNA Polymerase Buffer II (manufactured by TOYOBO CO., LTD.) 0.2 mM each of dATP, dCTP, dGTP and dTTP, 1.25 U of KOD DNA Polymerase, 100 pg of λDNA, and 10 pmol each of primers λ1 and λ8 (a final volume being 50 μl). Further, 2.5 μg or 5 μg of sodium alginate, 0.25 μg or 0.5 μg of κ carrageenan, or 125 ng, 250 ng or 375 ng of sodium dermatan sulfate, 500 ng of sodium heparan sulfate, 10 ng of potassium polyvinyl sulfate, 2.5 ng or 5 ng of sodium polystyrenesulfonate (average molecular weight: 5,400), or 5 ng of sodium polystyrenesulfonate (average molecular weight: 35,000) was respectively added to the above reaction mixture.

[1] = molecular target: T2, TaKaRa Taq DNA Polymerase (Thermus aquaticus, UniProt P19821); test: PCR with TaKaRa Taq DNA Polymerase in the presence of acidic substances; assay type: biochemical; settings: 1 kb fragment; 100 pg λDNA, primers λ1/λ3, 30 cycles 98°C 10 s–68°C 1 min, 50 μl; amount added 1 μg
T2 construct: purchased Takara Shuzo Co., Ltd
Procedure: Using the sulfated-fucose-containing polysaccharide-F obtained in Example 6 described above or sodium alginate, the effects of these acidic substances imparted on TaKaRa Taq DNA Polymerase (manufactured by Takara Shuzo Co., Ltd.) were examined. In this example, PCR was carried out in normal mode by using TaKaRa PCR Thermal Cycler Personal.
A reaction mixture comprising λDNA as a template, primers λ1 and λ3 as a primer pair, and TaKaRa Taq DNA Polymerase as DNA polymerase was prepared, and PCR was carried out. The composition of the reaction mixture is as follows.
TaKaRa Taq DNA Polymerase buffer, 0.2 mM each of dATP, dCTP, dGTP and dTTP, 1.25 U of TaKaRa Taq DNA Polymerase, 100 pg of λDNA, and 10 pmol each of primers λ1 and λ3 (a final volume being 50 μl). Further, 0.1 ng or 0.25 ng each of the sulfated-fucose-containing polysaccharide-F or 1 μg of sodium alginate was respectively added to the above reaction mixture.
The reaction was carried out in 30 cycles, wherein one cycle of reaction comprises a process consisting of 98° C., 10 seconds—68° C., 1 minute. After the termination of the reaction, 5 μl of the resulting reaction mixture was subjected to electrophoresis on 1% agarose gel containing ethidium bromide in an amount of 0.00005%, whereby an amplified fragment was confirmed.

T1 sequence (P77933 other isoform, or with tags, fused parts or gaps DEL407-766/DEL852-1388): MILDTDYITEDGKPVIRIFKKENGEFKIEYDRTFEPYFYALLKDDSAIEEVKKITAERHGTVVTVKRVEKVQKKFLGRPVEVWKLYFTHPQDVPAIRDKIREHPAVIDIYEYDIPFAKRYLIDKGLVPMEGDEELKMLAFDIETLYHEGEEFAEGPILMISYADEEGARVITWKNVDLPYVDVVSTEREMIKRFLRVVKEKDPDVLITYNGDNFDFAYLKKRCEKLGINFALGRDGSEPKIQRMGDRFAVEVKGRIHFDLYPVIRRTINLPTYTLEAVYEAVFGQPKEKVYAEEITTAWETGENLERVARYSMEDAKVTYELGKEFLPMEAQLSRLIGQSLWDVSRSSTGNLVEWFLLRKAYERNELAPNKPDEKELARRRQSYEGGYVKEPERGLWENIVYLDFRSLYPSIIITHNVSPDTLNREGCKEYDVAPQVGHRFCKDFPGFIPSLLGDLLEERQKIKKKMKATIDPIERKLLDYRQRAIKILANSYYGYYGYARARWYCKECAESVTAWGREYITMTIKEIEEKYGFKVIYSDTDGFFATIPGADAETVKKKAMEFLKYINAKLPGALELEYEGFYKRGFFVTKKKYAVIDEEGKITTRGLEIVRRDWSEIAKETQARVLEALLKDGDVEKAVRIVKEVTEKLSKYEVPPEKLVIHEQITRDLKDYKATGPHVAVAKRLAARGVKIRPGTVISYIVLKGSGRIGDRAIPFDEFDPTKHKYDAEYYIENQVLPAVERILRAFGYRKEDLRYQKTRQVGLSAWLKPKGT
T2 sequence (P19821 whole entry, the tested form may be a part): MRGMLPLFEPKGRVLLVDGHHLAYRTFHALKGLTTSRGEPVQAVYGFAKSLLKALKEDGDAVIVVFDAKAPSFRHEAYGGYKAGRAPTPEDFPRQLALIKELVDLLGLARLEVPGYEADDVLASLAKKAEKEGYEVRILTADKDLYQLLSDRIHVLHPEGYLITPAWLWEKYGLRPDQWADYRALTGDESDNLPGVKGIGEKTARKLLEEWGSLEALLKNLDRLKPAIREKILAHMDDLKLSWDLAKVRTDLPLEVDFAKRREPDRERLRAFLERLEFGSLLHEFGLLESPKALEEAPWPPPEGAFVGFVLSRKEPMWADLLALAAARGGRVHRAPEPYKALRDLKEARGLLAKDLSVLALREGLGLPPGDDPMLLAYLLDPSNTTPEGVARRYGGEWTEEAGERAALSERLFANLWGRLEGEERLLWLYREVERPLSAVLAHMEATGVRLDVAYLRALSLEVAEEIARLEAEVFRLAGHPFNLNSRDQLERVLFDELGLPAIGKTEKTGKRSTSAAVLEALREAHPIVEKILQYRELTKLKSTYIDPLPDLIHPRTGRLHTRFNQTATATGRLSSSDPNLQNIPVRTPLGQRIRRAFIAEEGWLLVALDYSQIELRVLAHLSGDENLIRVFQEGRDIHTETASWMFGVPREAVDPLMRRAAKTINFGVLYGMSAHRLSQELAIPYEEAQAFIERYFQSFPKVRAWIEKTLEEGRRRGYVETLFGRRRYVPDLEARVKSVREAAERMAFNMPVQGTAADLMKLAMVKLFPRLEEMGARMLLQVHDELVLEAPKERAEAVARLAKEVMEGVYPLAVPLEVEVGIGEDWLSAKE

sodium alginate
Amplification Results (KOD DNA Polymerase; Buffer I, 0.625 U KOD, primers λ1/λ8, 25 μl, amount added 1 μg): ++ (Intensive amplification being observed) | Amplification Results (KOD DNA Polymerase; Buffer I, 0.625 U KOD, primers λ1/λ8, 25 μl, amount added 2.5 μg): ++ (Intensive amplification being observed) | Amplification Results (KOD DNA Polymerase; Buffer II, 1.25 U KOD, primers λ1/λ8, 50 μl, amount added 2.5 μg): ++ (Intensive amplification being observed) | Amplification Results (KOD DNA Polymerase; Buffer II, 1.25 U KOD, primers λ1/λ8, 50 μl, amount added 5 μg): ++ (Intensive amplification being observed) | Amplification Results [1]: + (Amplification being observed)
